Assays:
[1] = Clinical Study #5: concentrations in plasma of DM, DX and Q and correlation with pain intensity; type: in vivo, human; details: final visit; for Concentration in plasma, Mean / Concentration in plasma, Median: extensive metabolizers
Method: Subjects visited the clinic every two weeks during the four-week duration of the study and were contacted by telephone during weeks without clinic visits. At each subsequent study visit or weekly phone call, the subjects were given the Pain Intensity Rating Scale and the Pain Relief Rating Scale and were queried regarding any adverse events that might have occurred since their previous visit. Subjects were administered the Peripheral Neuropathy Quality of Life (QOL) Instrument on Days 1 and 29 (or the final visit). Blood samples were taken at the visits on Day 15 and Day 29 to determine concentrations in plasma of DM, DX, and Q.

[2] = Clinical Study #2: plasma pharmacokinetics of dextromethorphan, dextrorphan and quinidine, single and multiple dose; details: for AUC(0-t) / Cmax / Tmax: human, in vivo, mean; for AUC(0-t): AUC (0-12) (plasma); for Cmax: Cmax (plasma); for Tmax: Tmax (plasma)
Method: Descriptive statistics for each parameter, including mean, median, standard deviation, coefficient of variation, N, minimum, and maximum were calculated for all of the subjects by Day. In addition, descriptive statistics were presented by the subgroups: extensive metabolizer (EM) and poor metabolizer (PM).
The ANOVA model included the factors group (EM or PM), subject within group, day, and the interaction term day by group. The group effect was tested using the subject within group mean square, and all other main effects were tested using the residual error (error mean square). In addition, tests of the hypotheses Day 1=Day 4, Day 1=Day 8, and Day 4=Day 8 were performed.

[3] = type: in vivo
From the text: An adverse event was any unfavorable and unintended sign (including an abnormal laboratory finding, for example), symptom, or disease temporally associated with the use of a medicinal product, whether or not considered related to the medicinal product. Changes associated with normal growth and development not varying in frequency or magnitude from that ordinarily anticipated clinically are not adverse events (for example, onset of menstruation occurring at a physiologically appropriate time). Clinical adverse events were described by diagnosis and not by symptoms when possible (for example, cold or seasonal allergies, instead of “runny nose”).
The severity of adverse events was graded on a 3-point scale and reported in detail as indicated on the Case Report Form: mild—easily tolerated, causing minimal discomfort, and not interfering with normal everyday activities; moderate—sufficiently discomforting to interfere with normal everyday activities; and severe—incapacitating and/or preventing normal everyday activities.
Subjects were instructed to promptly report any adverse event. The serious adverse event was assessed for the following details: seriousness of event, start date, stop date, intensity, frequency, relationship to test drug, action taken regarding test drug, treatment required, and outcome to date. These details were recorded on the Case Report Form. Such preliminary reports were followed by detailed descriptions that included copies of hospital case reports, autopsy reports, and other documents when requested and applicable.
Blood and urine were collected at the screening visit and Day 29 for clinical chemistry, hematology, urinalysis, and pregnancy testing. In the event of an abnormal laboratory test value, the test was repeated within one week, and the subject was followed up until the value returned to the normal range and/or until an adequate explanation of the abnormality was found.
Values were obtained for systolic and diastolic blood pressure, heart rate, and respiration rate on the screening visit and all other study visits. All values outside the pre-defined ranges were flagged in the subject data listings. Electrocardiography (twelve lead) was used to obtain ventricular rate (VR), QT, Q-Tc intervals, […] (PR), and QRS duration. A blood sample (10 mL whole blood) was taken from each subject at the Screening Visit for CYP2D6 genotyping to determine which subjects were poor metabolizers of DM and which were extensive metabolizers. Blood samples were taken on Day 29 for the determination of concentrations of DM, DX, and Q in plasma. The relationship between the concentration of drug in plasma and changes in CNS-LS scores was determined, and the effect of the CYP2D6 genotype on this relationship was evaluated.

[4] = Day 1, All Subjects, 30 mg DM HBr/25 mg Q sulfate capsule every 12 hours
[5] = Day 1, EM, 30 mg DM HBr/25 mg Q sulfate capsule every 12 hours
[6] = Day 1, PM, 30 mg DM HBr/25 mg Q sulfate capsule every 12 hours
[7] = Day 4, All Subjects, 30 mg DM HBr/25 mg Q sulfate capsule every 12 hours
[8] = Day 4, EM, 30 mg DM HBr/25 mg Q sulfate capsule every 12 hours
[9] = Day 4, PM, 30 mg DM HBr/25 mg Q sulfate capsule every 12 hours
[10] = Day 8, All Subjects, 30 mg DM HBr/25 mg Q sulfate capsule every 12 hours
[11] = Day 8, EM, 30 mg DM HBr/25 mg Q sulfate capsule every 12 hours
[12] = Day 8, PM, 30 mg DM HBr/25 mg Q sulfate capsule every 12 hours

**Q.** For CN1CC[C@@]23CCCC[C@@H]2[C@@H]1Cc1ccc(O)cc13 [Dextrorphan, dextrorphan], which “Concentration in plasma, Mean” value ([1]; DM/Q MTD 30 mg) is on record?
**A.** The value was 0.0707 µg/mL.

**Q.** What about the “Concentration in plasma, Median” value ([1]; DM/Q MTD 30 mg) of the same molecule?
**A.** The value was 0.0946 µg/mL.

**Q.** What about the “Concentration in plasma, Mean” value ([1]; DM/Q MTD 60 mg) of the same molecule?
**A.** The value was 0.0654 µg/mL.

**Q.** What about the “Concentration in plasma, Median” value ([1]; DM/Q MTD 60 mg) of the same molecule?
**A.** Its value is 0.0582 µg/mL.

**Q.** What about the “Concentration in plasma, Mean” value ([1]; DM/Q MTD 90 mg) of the same molecule?
**A.** The value was 0.0884 µg/mL.

**Q.** And the “Concentration in plasma, Median” value ([1]; DM/Q MTD 90 mg)?
**A.** Its value is 0.0884 µg/mL.

**Q.** What about the “Concentration in plasma, Mean” value ([1]; DM/Q MTD 120 mg) of the same molecule?
**A.** The value was 0.1466 µg/mL.

**Q.** And the “Concentration in plasma, Median” value ([1]; DM/Q MTD 120 mg)?
**A.** Its value is 0.1226 µg/mL.

**Q.** What about the “Concentration in plasma, Mean” value ([1]; Total, all MTDs) of the same molecule?
**A.** The value was 0.1239 µg/mL.

**Q.** And the “Concentration in plasma, Median” value ([1]; Total, all MTDs)?
**A.** Its value is 0.1026 µg/mL.

**Q.** And the Concentration in plasma ([1]; poor metabolizer (MTD of 60 mg))?
**A.** The Concentration in plasma was 0.041 µg/mL.

**Q.** What about the AUC(0-t) [2, 4] of the same molecule?
**A.** The AUC(0-t) was 0.749 µg·h/mL.

**Q.** And the AUC(0-t) [2, 5]?
**A.** Its AUC(0-t) is 0.934 µg·h/mL.

**Q.** What about the AUC(0-t) [2, 6] of the same molecule?
**A.** Its AUC(0-t) is 0.091 µg·h/mL.

**Q.** And the AUC(0-t) [2, 7]?
**A.** The AUC(0-t) was 0.742 µg·h/mL.

**Q.** And the AUC(0-t) [2, 8]?
**A.** The AUC(0-t) was 0.849 µg·h/mL.

**Q.** And the AUC(0-t) [2, 9]?
**A.** The AUC(0-t) was 0.365 µg·h/mL.

**Q.** And the AUC(0-t) [2, 10]?
**A.** The AUC(0-t) was 0.896 µg·h/mL.

**Q.** What about the AUC(0-t) [2, 11] of the same molecule?
**A.** Its AUC(0-t) is 1 µg·h/mL.

**Q.** And the AUC(0-t) [2, 12]?
**A.** The AUC(0-t) was 0.53 µg·h/mL.

**Q.** And the Cmax [2, 4]?
**A.** The Cmax was 0.0995 µg/mL.

**Q.** And the Cmax [2, 5]?
**A.** The Cmax was 0.125 µg/mL.

**Q.** And the Cmax [2, 6]?
**A.** Its Cmax is 0.0108 µg/mL.

**Q.** And the Cmax [2, 7]?
**A.** The Cmax was 0.0699 µg/mL.

**Q.** And the Cmax [2, 8]?
**A.** Its Cmax is 0.0793 µg/mL.

**Q.** What about the Cmax [2, 9] of the same molecule?
**A.** Its Cmax is 0.037 µg/mL.

**Q.** What about the Cmax [2, 10] of the same molecule?
**A.** The Cmax was 0.107 µg/mL.

**Q.** What about the Cmax [2, 11] of the same molecule?
**A.** Its Cmax is 0.124 µg/mL.

**Q.** And the Cmax [2, 12]?
**A.** Its Cmax is 0.0515 µg/mL.

**Q.** And the Tmax [2, 4]?
**A.** The Tmax was 3.78 h.

**Q.** And the Tmax [2, 5]?
**A.** The Tmax was 4 h.

**Q.** And the Tmax [2, 6]?
**A.** The Tmax was 3 h.

**Q.** And the Tmax [2, 7]?
**A.** Its Tmax is 2.17 h.

**Q.** And the Tmax [2, 8]?
**A.** Its Tmax is 2.21 h.

**Q.** What about the Tmax [2, 9] of the same molecule?
**A.** Its Tmax is 2 h.

**Q.** What about the Tmax [2, 10] of the same molecule?
**A.** Its Tmax is 32.7 h.

**Q.** What about the Tmax [2, 11] of the same molecule?
**A.** Its Tmax is 41.2 h.

**Q.** And the Tmax [2, 12]?
**A.** Its Tmax is 2.99 h.

**Q.** What about the “Fold increase in AUC (0-12) from Day 1 to Day 8” value ([2]; poor metabolizers) of the same molecule?
**A.** Its value is 4.8 fold.

**Q.** For C=C[C@H]1C[N@@]2CC[C@H]1C[C@@H]2[C@@H](O)c1ccnc2ccc(OC)cc12 [Quinidine, quinidine], which Subjects with dizziness ([3]; 28 days, twice daily) is on record?
**A.** The Subjects with dizziness was 2.7%.

**Q.** And the Subjects with nausea ([3]; 28 days, twice daily)?
**A.** The Subjects with nausea was 8.1%.

**Q.** And the Subjects with somnolence ([3]; 28 days, twice daily)?
**A.** The Subjects with somnolence was 0%.

**Q.** And the “Subjects who withdrew because of adverse events” value ([3]; human, in vivo, 29 days)?
**A.** The value was 8.1%.

**Q.** And the “Subjects reporting serious adverse events” value ([3]; judged not related to the study drug)?
**A.** Its value is “only other serious adverse event”.

**Q.** And the Tmax [2]?
**A.** The Tmax was 1.71 h.

Source: patent US20130072517A1 (Avanir Pharmaceuticals, Inc., priority 2002, published 2013)
